For the test, the target named is human Kv1.3 (hKv1.3) channels (Homo sapiens (Human), UniProt P22001). As to the kind of experiment: Electrophysiological (whole-cell patch clamp) determination of inhibitory activity on Kv1.3 channels. It is filed as cell-based. To be noted: HEK293T cells expressing hKv1.3; for IC50: Hill fit of peak current inhibition. Here is the method: Test Example 1: Determination of Inhibitory Activity of Compounds on Kv1.3 (hKv1.3) Channels
Electrophysiological Testing
Potassium currents were measured using HEK293T cells expressing human Kv1.3 (hKv1.3) channels.
Prior to the start of electrophysiological experiments, Kv1.3 cell lines should be maintained within 70% of the maximum density in the logarithmic growth phase. All reagents should be pre-warmed to 37° C. before use. • 1) Aspirate the spent medium from the 6 cm culture dish. • 2) Add 1 mL of PBS, gently rock the dish to rinse the bottom, and then remove the PBS. • 3) Add 1 mL of trypsin, and gently rock the dish to ensure the trypsin covers all the cells. • 4) Incubate at 37° C. for 2-3 minutes, and then gently pipette the cells to suspend the adherent cells. • 5) Transfer the cell suspension to a new centrifuge tube and centrifuge at 1000 rpm for 5 minutes. Adjust the cell concentration to 2×10^3 cells/mL, and then seed 300 μL of the cell suspension into each well of a 24-well plate containing cell climbing slides. Perform patch clamp experiments after the cells adhered properly.
The intracellular and extracellular solutions used were designed to mimic the cell physiological ionic composition.
Kv1.3 extracellular solution: 137 mM NaCl, 1 mM MgCl2·6H2O, 4 mM KCl, 1.8 mM CaCl2·2H2O, 10 mM D-Glucose, 10 mM HEPES, pH adjusted to 7.4 with NaOH.
Kv1.3 intracellular solution: 140 mM KCl, 10 mM EGTA, 5 mM MgCl2·6H2O, 10 mM HEPES, […], pH adjusted to 7.2 with KOH.
Test Compound Dissolution
• 1) The test compound was dissolved in DMSO to prepare a 30 mM stock solution. • 2) The stock solution of the test compound was serially diluted with DMSO to obtain secondary stock solutions at concentrations of 300 μM, 100 μM, 30 μM, 10 μM, and 3 μM. • 3) 10 μL of each secondary stock solution was diluted into 10 mL of extracellular solution to achieve final concentrations of 300 nM, 100 nM, 30 nM, 10 nM, and 3 nM for electrophysiological testing.
Kv1.3 potassium current data were collected and stored on a computer using Patchmaster software via an EPC-10 amplifier. • 1) The cell climbing slide was removed from the cell culture dish using forceps, immersed with extracellular solution, and placed into the bath chamber on the stage of an inverted microscope. • 2) Glass micropipettes were pulled using a P-1000 micropipette puller, filled one-third of their volume with intracellular solution, and then mounted onto an electrode holder. • 3) Using a motorized micromanipulator (Scientifica-Double 1U), the recording electrode was brought into contact with the cell surface. […] The positive pressure was removed, and a negative pressure of 0.5 cm H2O was applied. It was observed that the sealing resistance increased rapidly until it reached the gigaseal. When the sealing resistance between the recording electrode and the cell membrane was >1 GΩ, negative pressure was applied to rupture the membrane to form the whole-cell recording mode. After the ruptured membrane stabilized, the membrane capacitance (Cs) and series resistance (Rs) were compensated. • 4) Stimulation procedure: the cell was voltage-clamped at −80 mV, depolarized to 40 mV for a duration of 200 ms, and then repolarized to −80 mV. Currents were recorded every 10 s. • 5) Kv1.3 potassium channel currents were recorded at room temperature prior to drug application. After the control current value reached a steady state (indicated by overlapping of the four most consecutive current traces), cumulative drug application was performed. The negative control (0.1% DMSO) was applied first, followed by […] of the drugs.
Raw Kv1.3 current peak data were extracted from PatchMaster software. The current inhibition rate was calculated as follows: Peak current inhibition rate=((1−(Peak current compound)/(Peak current vehicle))). […]

Chain of human Kv1.3 (hKv1.3) channels (P22001 whole entry): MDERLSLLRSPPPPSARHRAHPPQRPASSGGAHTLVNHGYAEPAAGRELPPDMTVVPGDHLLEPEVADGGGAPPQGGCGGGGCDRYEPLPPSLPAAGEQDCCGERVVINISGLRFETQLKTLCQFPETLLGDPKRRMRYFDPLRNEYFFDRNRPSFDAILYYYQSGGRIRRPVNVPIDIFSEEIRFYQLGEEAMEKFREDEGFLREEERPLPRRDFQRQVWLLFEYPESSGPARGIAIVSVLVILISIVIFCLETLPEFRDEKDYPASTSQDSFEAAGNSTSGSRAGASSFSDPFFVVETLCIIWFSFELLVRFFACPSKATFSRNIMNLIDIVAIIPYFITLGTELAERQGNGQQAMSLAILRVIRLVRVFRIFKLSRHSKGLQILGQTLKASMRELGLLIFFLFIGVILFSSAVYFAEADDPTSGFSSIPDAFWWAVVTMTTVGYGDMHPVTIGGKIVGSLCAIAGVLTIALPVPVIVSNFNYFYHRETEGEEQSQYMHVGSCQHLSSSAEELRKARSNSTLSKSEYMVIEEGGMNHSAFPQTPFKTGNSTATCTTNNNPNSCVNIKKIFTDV

For `O=C1CC(c2c(O)ccc(Cl)c2Cl)CN1c1cnn2c1CCC2` (racemic) [Compound 160, rac-4-(2,3-dichloro-6-hydroxyphenyl)-1-(5,6-dihydro-4H-pyrrolo[1,2-b]pyrazol-3-yl)pyrrolidin-2-one], the inhibition at 0.01 µM (HEK-293T, compound concentration 10 nM, peak current inhibition, read-out: 10 nM inhibition rate (Kv1.3)) lay in the range of 25 to 50%.

`Oc1ccc(Cl)c(Cl)c1[C@@H]1CC(=S)N(c2cnn3c2CCC3)C1` [Compound 159-1, (S)-4-(2,3-Dichloro-6-hydroxyphenyl)-1-(5,6-dihydro-4H-pyrrolo[1,2-b]pyrazol-3-yl)pyrrolidine-2-thione] showed an IC50 of 5 to 10 nM.

As for `Oc1ccc(Cl)c(Cl)c1[C@@H]1CC(=S)N(C[C@H]2C[C@H](O)C2)C1` [Compound 129-1, (S)-4-(2,3-Dichloro-6-hydroxyphenyl)-1-(((1r,3r)-3-hydroxycyclobutyl)methyl)pyrrolidine-2-thione], the IC50 was ≤ 5 nM.

These data come from patent US20260042734A1, “HETEROCYCLIC RING-SUBSTITUTED AROMATIC COMPOUND, PREPARATION METHOD THEREFOR, AND USE THEREOF” (SHANGHAI HENLIUS BIOTECH, INC., priority 2023, published 2026).
